Laboratory results: patent US8871919B2, “RNAi therapeutic for treatment of Hepatitis C infection” (Florida State University Research Foundation, priority 2007, dated 2014)
“Also recorded” adds a separate entry of the source.

Columns and labels:
GS5 replicon cells [1] = experiment: NS5A expression in GS5 replicon cells (Western blot); assay type: cell-based, Hepatitis C virus; conditions: for NS5A expression: GS5 cells
CyPA [2] = experiment: CyPA expression in GS5 cells (Western blot); assay type: cell-based, human
Procedure: (§1) A human immunodeficiency virus (HIV)-based lentiviral vector is used to express all of the short hairpin RNAs (shRNAs). […] Target or sense sequences for the other shRNAs are as follows:
(§2) The above sequences may be converted to RNA sequences by changing each thymine (T) to uracil (U). Lentiviral vector production and transduction are performed as described previously (44). Stable cells expressing shRNAs are obtained by selection with 1 μg/ml of puromycin (MP Biomedicals, Solon, Ohio) for 3 weeks.

RS2 replicon cells [3] = experiment: NS5A expression in CsA-resistant RS2 replicon cells (Western blot); assay type: cell-based, Hepatitis C virus; conditions: lentiviral shRNA, 7 days
HCV = conditions: cited from earlier work
CyPA [4] = experiment: CyPA expression in RS2 cells (Western blot); assay type: cell-based, human; conditions: RS2 cells stably expressing shRNA (FIG. 3B)
Procedure: as §1, §2

[5] = test system: GT 1b (Con1) subgenomic replicon; experiment: Colony formation in stable Huh-7.5 cells electroporated with GT 1b (Con1) replicon RNA; assay type: cell-based, Hepatitis C virus; conditions: stable Huh-7.5 cells (FIG. 4C)
Text: (§3) FIG. 4C is an image of plates containing stained Huh-7.5 cells transduced with several shRNAs (sh-Luc, sh-A159, sh-B710, or sh-C454) after four weeks following electroporation with one microgram of either H77 (GT 1a) or Con1 (GT 1b) replicons;
(§4) GS5 and RS2 cells contain GT 1b replicons with the GFP gene inserted into the NS5A region. (See, e.g., Moradpour, D. et al., “Insertion of green fluorescent protein into nonstructural protein 5A allows direct visualization of functional hepatitis C virus replication complexes,” J. Virol. 78:7400-7409 (2004); Nelson, H. B. et al., “Effect of cell growth on hepatitis C virus (HCV) replication and a mechanism of cell confluence-based inhibition of HCV RNA and protein expression,” J. Virol. 80:1181-1190 (2006)). Next the effect of CyPA knock-down on replicons without GFP is examined. Both GT 1a and 1b replicons are tested. To this end, stable Huh-7.5 cell lines are established that express the various shRNAs and then challenges them, by electroporation, with in vitro-transcribed GT 1a (H77) and 1b (Con1) subgenomic replicon RNAs. The shRNAs effectively silence the expression of their respective targets in the stable cells as expected (FIGS. 4A and 4B). No defect in morphology or growth rate is detected for any of the stable cell lines, confirming that these CyPs are dispensable for cell survival in vitro.

Rep1b RNA = conditions: day 4 vs 7 hours after electroporation (FIG. 2E)
Procedure: A parallel electroporation of Rep1b RNA into Huh-7.5/sh-Luc cells serves as a positive control, which is set at 100%;
One microgram of replicon RNA is mixed with 9 μg of a pcDNA3.1-based plasmid containing no insert, CyPA cDNA, CyPB cDNA, or CyPC cDNA and used in a standard electroporation (36). RNA is extracted 7 h and 4 days post-electroporation and subjected to quantitative RT-PCR analysis to detect HCV RNA as described previously (See, e.g., Robida, J. M et al., Characterization of hepatitis C virus subgenomic replicon resistance to cyclosporine in vitro, J. Virol., 81:5829-5840 (2007). All the CyP cDNAs are tagged with a Myc epitope at the C terminus, and the CyPA cDNA containing silent mutations in the sh-A159 recognition site is designated CyPA#.

GS5 replicon cells [6] = experiment: Colony formation assay, puromycin and G418 double selection, GS5 cells; assay type: cell-based, Hepatitis C virus
HCVcc/JFH-1 = HCVcc/JFH-1 infection of Huh-7.5 cells; assay type: cell-based, Hepatitis C virus
Text: FIG. 5A is an image of an RNA gel showing HCV IRES RNA levels relative to cellular RNA helicase A (RHA) RNA in total RNA extracts from Huh7.5 cells transduced with several shRNAs (sh-Luc, sh-A159, or sh-B710) following infection with HCVcc/JFH-1 for nine days;
FIG. 5B is a fluorescence microscopy image showing anticore antibody and DAPI (4′,6′-diamidino-2-phenylindole) staining of paraformaldehyde fixed Huh7.5 cells transduced with either sh-Luc or sh-A159 following infection with HCVcc/JFH-1 for nine days;
FIG. 5C is an image of Western blots showing expression of the proteins NS3, GAPDH, and CyPA in total protein extracts from Huh7.5 cells transduced with the indicated shRNAs (sh-Luc or sh-A159) at 0, 9, or 12 days after infection with HCVcc/JFH-1 replicons; […]
Full-length JFH-1 cDNA is provided by Takaji Wakita. Production of infectious HCVcc and infection of Huh-7.5 cells are performed as described previously (See, e.g., Zhong, J. et al., “Robust hepatitis C virus infection in vitro,” Proc. Natl. Acad. Sci. USA, 102:9294-9299 (2005)). Western blotting and immunostaining of infected cells are carried out according to standard methods.

RS2 replicon cells [7] = experiment: NS5A-GFP expression in RS2 cells by FACS; assay type: cell-based, Hepatitis C virus
Text: In contrast to the GS5 replicon, RS2 replicates efficiently in the presence of substantial CyPA knock-down (FIG. 1D).

RS2 replicon cells [8] = experiment: Colony formation assay, puromycin and G418 double selection, RS2 cells; assay type: cell-based, Hepatitis C virus
[9] = test system: vesicular stomatitis virus; assay type: cell-based; conditions: sh-A159 Huh-7.5 cells (FIG. 5D)
[10] = test system: GT 1a (H77) subgenomic replicon; experiment: Colony formation in stable Huh-7.5 cells electroporated with GT 1a (H77) replicon RNA; assay type: cell-based, Hepatitis C virus; conditions: stable Huh-7.5 cells (FIG. 4C)
Text: as §3, §4

[11] = test system: Con1 (GT 1b) replicon cells; experiment: NS5A expression in Con1 (GT 1b) replicon cells, transient transduction; assay type: cell-based, Hepatitis C virus; conditions: transient transduction (FIG. 4D)
Text: (§5) FIG. 4D is an image of Western blots showing expression of the proteins NS5A, CyPB, and CyPA in H77 (GT 1a) and Con1 (GT 1b) replicon cells transduced with the indicated shRNAs (sh-Luc or sh-A161);

[12] = test system: H77 (GT 1a) replicon cells; experiment: NS5A expression in H77 (GT 1a) replicon cells, transient transduction; assay type: cell-based, Hepatitis C virus; conditions: transient transduction (FIG. 4D)
Text: as §5

[13] = synthesized siRNA duplex, transient transfection (FIG. 2C)

## si-A159: synthesized siRNA duplex form of sh-A159 (sense SEQ ID NO: 2, antisense SEQ ID NO: 4) (sense AAGGGUUCCUGCUUUCACAGA; antisense UCUGUGAAAGCAGGAACCCUU; listed as RNA, chemistry not given here)
GS5 replicon cells [1]; [13]
  NS5A expression: inhibited
CyPA [2]; [13]
  CyPA expression: inhibited; also recorded: no more potent than si-A285

## sh-C454: shRNA directed at CyPC, nucleotides 454-474 of human CyPC cDNA (SEQ ID NO: 10) (AAGACTGAAGGTGTGCTGGTA) [reference compound]
RS2 replicon cells [3]
  NS5A expression: no effect
GS5 replicon cells [1]; lentiviral shRNA, 7 days
  NS5A expression: no effect

## alpha-interferon and ribavirin
HCV
  sustained efficacy, share of patients: 40%

## sh-A159: shRNA against CyPA; sense sequence nucleotides 159 through 179 of human CyPA cDNA, hairpin UUCAAGAGA (SEQ ID NO: 3) (AAGGGUUCCUGCUUUCACAGAUUCAAGAGAUCUGUGAAAGCAGGAACCCUU)
CyPA [4]
  CyPA expression: substantial suppression
[5]
  ability of replicon RNA to form colonies: completely inhibits
Rep1b RNA
  HCV RNA replication with sh-A159-insensitive CyPA cDNA (Myc-A#): partially rescued
GS5 replicon cells [6]
  number of double-resistant colonies: significantly lower number
HCVcc/JFH-1; Huh-7.5, HCVcc/JFH-1, RT-PCR, core staining, NS3 Western blot
  HCV infection of stable shRNA cells: highly refractory to infection
HCVcc/JFH-1; Huh-7.5 infected with JFH-1 for 10 days, then transduced, NS3 measured 7 days after transduction
  viral replication (NS3 expression) in an existing infection: suppresses viral replication
RS2 replicon cells [7]; no selection, 0.5 μg/ml CsA, FACS (FIG. 3C)
  suppression of NS5A-GFP expressing RS2 cells: no significant suppression
RS2 replicon cells [7]; stable RS2 cells, CsA 4 days, FACS (FIG. 3A)
  sensitivity of RS2 replicon to CsA relative to RS2/sh-Luc: six to eight times more sensitive
GS5 replicon cells [1]; lentiviral shRNA, 7 days
  NS5A expression: inhibits NS5A expression; also recorded: most effective
GS5 replicon cells [1]; replicon cells, sh-A159 together with Myc-A# (FIG. 2D)
  NS5A expression with sh-A159-insensitive CyPA cDNA (Myc-A#): partially rescued
RS2 replicon cells [8]
  number of double-resistant colonies: not observed
[9]
  susceptibility to infection by vesicular stomatitis virus: fully susceptible
[10]
  ability of replicon RNA to form colonies: completely inhibits
[11]
  NS5A expression: inhibitory effect
CyPA [2]; lentiviral shRNA, 7 days (FIG. 2B)
  CyPA expression: knock down CyPA expression; also recorded: most effective
[12]
  NS5A expression: inhibitory effect
